What was measured:
measles virus = conditions: cited from earlier work
HIV-1 = conditions: cited from earlier work

Molecule: CC[C@H](C)[C@H](NC(=O)[C@H](CC(C)C)NC(=O)[C@H](CC(C)C)NC(=O)[C@H](Cc1c[nH]c2ccccc12)NC(=O)[C@@H](NC(=O)[C@H](Cc1ccc(O)cc1)NC(=O)[C@H](Cc1c[nH]c2ccccc12)NC(=O)[C@@H]1CCCN1C(=O)[C@H](Cc1c[nH]c2ccccc12)NC(=O)[C@H](CCCCN)NC(=O)[C@@H](NC(=O)[C@H](Cc1ccc(O)cc1)NC(=O)[C@H](CCSC)NC(=O)[C@H](CCC(=O)O)NC(=O)[C@H](Cc1ccc(O)cc1)NC(=O)[C@@H](NC(=O)CNC(=O)[C@@H](NC(=O)[C@H](CCC(=O)O)NC(=O)[C@H](CCCCN)NC(=O)[C@H](CC(C)C)NC(=O)[C@H](CC(N)=O)NC(=O)[C@@H](NC(=O)[C@H](Cc1ccc(O)cc1)NC(=O)[C@H](CO)NC(=O)[C@H](CCC(=O)O)NC(=O)[C@H](CC(N)=O)NC(=O)[C@H](CC(C)C)NC(=O)[C@H](CCCCN)NC(=O)[C@H](CCCCN)NC(=O)[C@@H](NC(=O)[C@H](C)NC(=O)[C@H](CC(=O)O)NC(=O)[C@H](CCC(N)=O)NC(=O)[C@@H](NC(=O)[C@@H](N)CCCNC(=N)N)[C@@H](C)CC)[C@@H](C)CC)[C@@H](C)CC)C(C)C)[C@@H](C)O)C(C)C)C(C)C)C(=O)O [SEQ ID NO: 52]
- non-specific cytotoxic effects of the peptide on cells (morphology) (L2 cells): normal morphology

Molecule: carbobenzoxy derivative of phenylalanine-phenylalanine-glycine [z-FFG]
- activity against measles virus (measles virus): effective

Molecule: enfuvirtide
- concentration range that suppresses HIV-1 infection (HIV-1): nanomolar range

— patent US20040229219A1 (priority 2003, published 2004)
